Series [1] has as its target GSK3β (Homo sapiens, UniProt P49841). In words: GSK3beta assay (SPA, biotinylated phosphorylated CREB peptide, ATP-P33). The series is classed as biochemical. The following applies: −log IC50 (M); given as ranges (>8; 7-8; <7); read-out: pIC50 (GSK3beta) (converted). A digest of the protocol: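 Radiometric SPA at room temperature, pH 7.4 Tris/MgCl2/DTT/BSA/glycerol, with 5.7 ng/μl GSK3β, 5 μM biotinylated phospho-CREB peptide, 1 μM ATP plus 33P-ATP for 1 h. Stopped with streptavidin SPA beads, counted after overnight settling; % inhibition versus no-compound control, IC50 from dose-response curve.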

Series [2] concerns the target GSK3alpha (Homo sapiens, UniProt P49840). Put plainly: GSK3alpha assay (same as the GSK3beta assay, GSK3alpha 0.25 ng/μl). The series is classed as biochemical. The note with it: −log IC50 (M); given as ranges (>8; 7-8; <7); read-out: pIC50 (GSK3alpha) (converted). A digest of the protocol:
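GSK3α at 0.25 ng/μl phosphorylated 5 μM biotinylated phospho-CREB peptide with 1 μM ATP and 33P-ATP for 1 h at room temperature, in 25 mM Tris pH 7.4 with 10 mM MgCl2 and 1 mM DTT. Phosphorylated peptide was captured on streptavidin SPA beads and counted. IC50 was taken from dose-response curves.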

Each structure is given as a SMILES string. Structures can show the parent of a compound that is named as a salt. Where only a bound is given, the exact number is not on record here.

GSK3β, sequence (P49841 whole entry, species assumed): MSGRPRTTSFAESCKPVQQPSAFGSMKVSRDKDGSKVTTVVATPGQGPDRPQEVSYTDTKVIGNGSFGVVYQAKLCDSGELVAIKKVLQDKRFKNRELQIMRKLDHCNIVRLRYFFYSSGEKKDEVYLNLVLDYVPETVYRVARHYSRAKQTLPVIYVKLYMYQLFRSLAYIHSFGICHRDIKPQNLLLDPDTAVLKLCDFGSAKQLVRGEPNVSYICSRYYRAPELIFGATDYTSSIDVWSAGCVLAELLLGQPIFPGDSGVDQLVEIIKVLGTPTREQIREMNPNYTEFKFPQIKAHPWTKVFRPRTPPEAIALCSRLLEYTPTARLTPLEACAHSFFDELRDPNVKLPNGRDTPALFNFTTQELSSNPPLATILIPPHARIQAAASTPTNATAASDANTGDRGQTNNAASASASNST
GSK3alpha, sequence (P49840 whole entry, species assumed): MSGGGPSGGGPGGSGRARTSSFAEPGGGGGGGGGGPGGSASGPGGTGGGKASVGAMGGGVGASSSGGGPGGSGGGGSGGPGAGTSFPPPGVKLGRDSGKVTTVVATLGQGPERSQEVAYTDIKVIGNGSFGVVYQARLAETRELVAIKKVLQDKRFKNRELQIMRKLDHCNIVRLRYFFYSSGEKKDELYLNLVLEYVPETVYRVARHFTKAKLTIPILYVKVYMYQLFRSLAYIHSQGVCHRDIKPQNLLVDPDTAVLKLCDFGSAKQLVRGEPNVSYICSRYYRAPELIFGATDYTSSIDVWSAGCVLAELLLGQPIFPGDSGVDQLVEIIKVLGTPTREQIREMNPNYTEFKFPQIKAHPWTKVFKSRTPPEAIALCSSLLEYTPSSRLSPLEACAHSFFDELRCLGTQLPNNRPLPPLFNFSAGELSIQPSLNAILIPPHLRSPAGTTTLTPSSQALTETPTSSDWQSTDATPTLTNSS

Consider `COc1cccc(-n2nnc3cnc(Nc4cccc(C#N)c4)nc32)c1` [Compound 55], for which the melting point (commonly the temperature, or range, at which the solid turns liquid) is 228 to 231 °C. The IC50 in series [1] was less than 1e-08 M. For the same molecule, the IC50 in series [2] is less than 1e-08 M.

As for `Fc1cccc(-n2nnc3cnc(Nc4cccc(Br)c4)nc32)c1` [Compound 7], the melting point was in the range of 212 to 213 °C. Besides, the IC50 in series [1] was less than 1e-08 M. Moreover, in series [2], the IC50 is less than 1e-08 M.

Molecule `Nc1cccc(Nc2ncc3nnn(-c4cccc(F)c4)c3n2)c1` (as salt: HCl) [Compound 12] returned a melting point of 224 °C.

Molecule `COCCOCc1cccc(-n2nnc3cnc(Nc4ccc(F)cc4)nc32)c1` [Compound 287] returned a melting point of 148 °C. The IC50 in series [1] was less than 1e-08 M. For the same molecule, the IC50 in series [2] was less than 1e-08 M.

`CC(O)c1cccc(Nc2ncc3nnn(-c4cccc(F)c4)c3n2)c1` (stereo not shown) [Compound 27] displayed a melting point of 150 to 154 °C. For the same molecule, the IC50 in series [1] was less than 1e-08 M. Besides, the IC50 in series [2] was less than 1e-08 M.

Take `N#Cc1ccc(Nc2ncc3nnn(-c4cccc(F)c4)c3n2)cc1Cl` [Compound 3]: the melting point was more than 260 °C. In addition, the IC50 in series [1] was less than 1e-08 M. Further, the IC50 in series [2] is less than 1e-08 M.

`CCOC(=O)/C=C/c1cccc(Nc2ncc3nnn(-c4cccc(F)c4)c3n2)c1` [Compound 9] registered a melting point of 214 to 218.1 °C. Further, in series [1], the IC50 was less than 1e-08 M. The IC50 in series [2] was less than 1e-08 M.

In the case of `NS(=O)(=O)c1cccc(Nc2ncc3nnn(-c4cccc(F)c4)c3n2)c1` [Compound 1], the melting point was 177 °C. In addition, the IC50 in series [1] was less than 1e-08 M. Moreover, the IC50 in series [2] was less than 1e-08 M.

In turn, `C=CCN(c1cccc(Nc2ncc3nnn(-c4cccc(CO)c4)c3n2)c1)S(C)(=O)=O` [Compound 69] showed a melting point of 158 to 162 °C. For the same molecule, the IC50 in series [1] is less than 1e-08 M. Further, the IC50 in series [2] is 1e-08 M.

With `COc1cc(OC)cc(-n2nnc3cnc(Nc4cccc(C#N)c4)nc32)c1` [Compound 6], the melting point fell in the range of 228 to 232 °C. Further, the IC50 in series [1] was less than 1e-08 M. In addition, in series [2], the IC50 is less than 1e-08 M.

For `C[S+]([O-])c1cccc(Nc2ncc3nnn(-c4cccc(F)c4)c3n2)c1` (stereo not shown) [Compound 152], the melting point was in the range of 168 to 172 °C. In series [1], the IC50 was less than 1e-08 M. The IC50 in series [2] is less than 1e-08 M.

`CC(C)Oc1cccc(Nc2ncc3nnn(-c4cccc(F)c4)c3n2)c1` [Compound 28] yielded a melting point of 142 to 146 °C. Moreover, the IC50 in series [1] is less than 1e-08 M. In addition, the IC50 in series [2] was less than 1e-08 M.

Regarding `N#Cc1cccc(Nc2ncc3nnn(-c4cccc(F)c4)c3n2)c1` [Compound 8], the melting point was in the range of 228 to 230 °C. For the same molecule, in series [1], the IC50 was less than 1e-08 M. Besides, the IC50 in series [2] was less than 1e-08 M.

Turning to `COCc1cccc(-n2nnc3cnc(Nc4cccc([S+](C)[O-])c4)nc32)c1` (stereo not shown) [Compound 148], the melting point is 142 to 146 °C. Further, the IC50 in series [1] is less than 1e-08 M. Besides, the IC50 in series [2] is less than 1e-08 M.

Molecule `CC(=O)NCc1cccc(Nc2ncc3nnn(-c4cccc(C(=O)O)c4)c3n2)c1` [Compound 76] registered a melting point of more than 260 °C.

Molecule `NS(=O)(=O)c1cccc(Nc2ncc3nnn(-c4cccc(-c5cnco5)c4)c3n2)c1` [Compound 57] showed a melting point of more than 250 °C. The IC50 in series [1] was less than 1e-08 M. Also, the IC50 in series [2] is less than 1e-08 M.

With `COc1cc(Nc2ncc3nnn(-c4cccc(F)c4)c3n2)ccc1C(=O)O` [Compound 298], the melting point was 232 °C. In series [1], the IC50 is less than 1e-08 M. Besides, in series [2], the IC50 was less than 1e-08 M.

`O=C(O)/C=C/c1cccc(Nc2ncc3nnn(-c4cccc(F)c4)c3n2)c1` [Compound 10]: the melting point was more than 250 °C. The IC50 in series [1] was less than 1e-08 M. Further, in series [2], the IC50 is less than 1e-08 M.

Molecule `CC(=O)c1cccc(Nc2ncc3nnn(-c4cccc(F)c4)c3n2)c1` [Compound 2] registered a melting point of 220 to 224 °C. Moreover, in series [1], the IC50 was less than 1e-08 M. In series [2], the IC50 is less than 1e-08 M.

`CN(C)CCCOc1ccc(Nc2ncc3nnn(-c4cccc(F)c4)c3n2)cc1` [Compound 297] yielded a melting point of 137 °C. Further, the IC50 in series [1] is 1e-08 to 1e-07 M. The IC50 in series [2] is 1e-08 to 1e-07 M.

Take `OCCc1ccc(Nc2ncc3nnn(-c4cccc(F)c4)c3n2)cc1` [Compound 147]: the IC50 in series [1] and in series [2] was less than 1e-08 M throughout.

These data come from patent publication US7560458B2, “Triazolopyrimidine derivatives as glycogen synthase kinase 3 inhibitors” (Janssen Pharmaceutica, N.V., priority 2003, dated 2009).
